Assay results as given in patent US7795457B2, “Carbamate compounds” (Kosan Biosciences Incorporated, priority 2007, dated 2010).
Like-named read-outs stand apart in the source and are kept apart here.

Key:
[1] = tested on: HCT-116; assay: Inhibition of tumor cell proliferation, HCT-116; assay type: cell-based, human; conditions: Homo sapiens, HCT-116, read-out: Cancer Cell Line (IC50, nM) HCT-116
Experimental: (§1) The biological activity of compounds of this invention was evaluated by measuring their inhibitory effect on the proliferation of various tumor cell lines. HCT-116 is a human colon cancer cell line. LNCap is a human prostate cancer cell line. SiHa is an HPV-16 positive human cervical cancer line.

[2] = tested on: A549; assay: Inhibition of tumor cell proliferation, A549; assay type: cell-based; conditions: Homo sapiens, read-out: IC50, nM, A549
Experimental: as §1
(§2) Table D presents additional data for the activity of compounds A-1 and A-4 against various cell lines. In some instances, comparative data against leptomycin B (LMB) and/or compound VI (Dong et al., US 2005/0272727 A1 (2005) is also provided.
(§3) The additional cell lines tested against represent a variety of different cancers: bladder cancer (UM-UC-3), breast cancer (BT474, HCC1937, MDA-MB468, NCI-ADR), CNS cancer (U87MG (glioma), SKNSH (neuroblastoma)), colon cancer (LoVo, LS411N, LS513), head and neck cancer (CAL-27, FaDu), leukemia (CCRF-CEM, MOLT-4), liver cancer (HepG2), lung cancer (A549, NCI-H23, NCI-H358), melanoma (Colo829), ovarian cancer (OVCAR-4), pancreatic cancer (BxPC-3, Mia-PaCa2), prostate cancer (22Rv1, PC-3), and renal cancer (A-498, Caki-1).

[3] = tested on: SiHa; assay: Inhibition of tumor cell proliferation, SiHa; assay type: cell-based, human; conditions: Homo sapiens, SiHa, read-out: Cancer Cell Line (IC50, nM) SiHa
Experimental: as §1

[4] = tested on: UM-UC-3; assay: Inhibition of tumor cell proliferation, UM-UC-3; assay type: cell-based; conditions: Homo sapiens, read-out: IC50, nM, UM-UC-3
Experimental: as §1, §2, §3

[5] = tested on: LNCap; assay: Inhibition of tumor cell proliferation, LNCap; assay type: cell-based, human; conditions: Homo sapiens, LNCaP, read-out: Cancer Cell Line (IC50, nM) LNCap
Experimental: as §1

[6] = tested on: CRM1 substrate RanBP1; assay: Nuclear export block (RanBP1 localization, recovery after compound removal); assay type: cell-based; conditions: recovery of cytoplasmic RanBP1 localization after compound washout (typically 1 h exposure; 8, 24 or 48 h recovery)
Experimental: The nuclear export blocking capability of compounds of this invention was evaluated as follows:
1-5×10^4 cells were seeded onto 12 mm glass coverslips or wells of a chamber slide (for example, Lab-Tek #177445). Cells were grown overnight at 37° C. to allow cells to attach to the surface. Media was removed and replaced with media containing the desired test compound and incubated the required time period (typically 1 h). For recovery experiments, cells were washed with PBS or media and incubated in media without test compound for the desired recovery periods (typically 8, 24, or 48 h). The media was removed and coverslips/wells were washed with PBS pH 7.4 for 1 minute. Coverslips or slides were fixed with 3.7% formaldehyde in PBS for 20 minutes at room temperature, washed three times in PBS, and stained for the CRM1 substrate RanBP1.
Coverslips or chamber slides were permeabilized and blocked in 10% donkey serum, 0.1% Triton X-100 in PBS for 30 minutes at room temperature. Primary antibodies were diluted in PBS and incubated for 1 hour at room temperature: goat-anti-RanBP1 (Santa Cruz Biotechnology, sc-1160; 1:50 dilution) and mouse-anti-tubulin (Sigma, T9026; 1:400). Cells were washed 3×5 minutes in PBS. Secondary antibodies donkey-anti-goat Cy3 (705-165-147, Jackson Immunoresearch) and donkey anti-mouse FITC (715-095-150, Jackson Immunoresearch) were diluted 1:200 in PBS and incubated for 1 hour at room temperature. Secondary antibody was removed and cells were stained with a nuclear dye such as DAPI (Sigma, D8417; 2.5 ug/mL in PBS) or Hoechst 33342 (Molecular Probes, H3570; 100 ng/mL in PBS) for 5 minutes at room temperature. Cells were washed 3×5 minutes in PBS and coverslips were mounted with FluorSave (EMD Biosciences, 80058-108). Nuclear (N) or cytoplasmic (C) localization of RanBP1 was examined using a 40× objective on a Zeiss Axiovert 200 inverted epiflourescence microscope. Nuclear localization (N>C) was confirmed after the initial drugging period.

[7] = tested on: SKNSH; assay: Inhibition of tumor cell proliferation, SKNSH; assay type: cell-based; conditions: Homo sapiens, SK-N-SH, read-out: IC50, nM, SKNSH
Experimental: as §1, §2, §3

[8] = tested on: NCI-ADR; assay: Inhibition of tumor cell proliferation, NCI-ADR; assay type: cell-based; conditions: Homo sapiens, NCI/ADR-RES, read-out: IC50, nM, NCI-ADR
Experimental: as §1, §2, §3

[9] = tested on: LS513; assay: Inhibition of tumor cell proliferation, LS513; assay type: cell-based; conditions: Homo sapiens, LS-513
Experimental: as §1, §2, §3

[10] = tested on: NCI-H358; assay: Inhibition of tumor cell proliferation, NCI-H358; assay type: cell-based; conditions: Homo sapiens
Experimental: as §1, §2, §3

[11] = tested on: CAL-27; assay: Inhibition of tumor cell proliferation, CAL-27; assay type: cell-based; conditions: Homo sapiens
Experimental: as §1, §2, §3

[12] = tested on: U87MG; assay: Inhibition of tumor cell proliferation, U87MG; assay type: cell-based; conditions: Homo sapiens, U-87 MG
Experimental: as §1, §2, §3

[13] = tested on: Mia-PaCa2; assay: Inhibition of tumor cell proliferation, Mia-PaCa2; assay type: cell-based; conditions: Homo sapiens, MIA PaCa-2
Experimental: as §1, §2, §3

[14] = tested on: LS411N; assay: Inhibition of tumor cell proliferation, LS411N; assay type: cell-based; conditions: Homo sapiens, LS-411N
Experimental: as §1, §2, §3

[15] = tested on: HCC1937; assay: Inhibition of tumor cell proliferation, HCC1937; assay type: cell-based; conditions: Homo sapiens
Experimental: as §1, §2, §3

[16] = tested on: OVCAR-4; assay: Inhibition of tumor cell proliferation, OVCAR-4; assay type: cell-based; conditions: Homo sapiens
Experimental: as §1, §2, §3

[17] = tested on: NCI-H23; assay: Inhibition of tumor cell proliferation, NCI-H23; assay type: cell-based; conditions: Homo sapiens
Experimental: as §1, §2, §3

[18] = tested on: BT474; assay: Inhibition of tumor cell proliferation, BT474; assay type: cell-based; conditions: Homo sapiens, BT-474
Experimental: as §1, §2, §3

[19] = tested on: Colo829; assay: Inhibition of tumor cell proliferation, Colo829; assay type: cell-based; conditions: Homo sapiens, COLO-829
Experimental: as §1, §2, §3

[20] = tested on: HepG2; assay: Inhibition of tumor cell proliferation, HepG2; assay type: cell-based; conditions: Homo sapiens
Experimental: as §1, §2, §3

[21] = tested on: Caki-1; assay: Inhibition of tumor cell proliferation, Caki-1; assay type: cell-based; conditions: Homo sapiens, exposure time 1 h
Experimental: as §1, §2, §3

[22] = tested on: A-498; assay: Inhibition of tumor cell proliferation, A-498; assay type: cell-based; conditions: Homo sapiens, A498; exposure time 1 h
Experimental: as §1, §2, §3

[23] = tested on: 22Rv1; assay: Inhibition of tumor cell proliferation, 22Rv1; assay type: cell-based; conditions: Homo sapiens
Experimental: as §1, §2, §3

[24] = tested on: MOLT-4; assay: Inhibition of tumor cell proliferation, MOLT-4; assay type: cell-based; conditions: Homo sapiens, exposure time 72 h
Experimental: as §1, §2, §3

[25] = tested on: FaDu; assay: Inhibition of tumor cell proliferation, FaDu; assay type: cell-based; conditions: Homo sapiens
Experimental: as §1, §2, §3

[26] = tested on: PC-3; assay: Inhibition of tumor cell proliferation, PC-3; assay type: cell-based; conditions: Homo sapiens
Experimental: as §1, §2, §3

[27] = tested on: CCRF-CEM; assay: Inhibition of tumor cell proliferation, CCRF-CEM; assay type: cell-based; conditions: Homo sapiens, exposure time 72 h
Experimental: as §1, §2, §3

[28] = tested on: LoVo; assay: Inhibition of tumor cell proliferation, LoVo; assay type: cell-based; conditions: Homo sapiens, exposure time 1 h
Experimental: as §1, §2, §3

`CCC(=C/[C@H](C)C/C=C/C(C)=C/[C@@H](C)C(=O)[C@@H](C)[C@H](O)[C@@H](C)C/C(C)=C/C(=O)O)/C=C/[C@@H]1OC(=O)C=C[C@@H]1C` [Leptomycin B, reference compound] gave an IC50 ([1]; exposure time to compound 1 h) of 4.3 nM, an IC50 ([1]; exposure time to compound 72 h) of 0.32 nM and an IC50 ([2]; A549, exposure time 72 h) of 0.55 nM. It also gave an IC50 ([3]; exposure time to compound 1 h) of 2.1 nM, an IC50 ([3]; exposure time to compound 72 h) of 0.4 nM and an IC50 ([4]; UMUC3, exposure time 72 h) of 0.3 nM. For the same compound, the IC50 ([5]; exposure time to compound 1 h) was 3.3 nM, the IC50 ([5]; exposure time to compound 72 h) was 0.3 nM and the “Nuclear Export Block” value [6] was “Slow recovery”. It also gave an IC50 ([7]; exposure time 1 h) of 4.1 nM, an IC50 ([7]; exposure time 72 h) of 0.4 nM and an IC50 ([8]; exposure time 1 h) of 33.8 nM.

For `CCC(=C/[C@H](C)C/C=C/C(C)=C/[C@@H](C)C(=O)[C@@H](C)[C@H](O)[C@@H](C)C/C(C)=C/C(=O)NCCc1cccnc1)/C=C/[C@@H]1OC(=O)C=C[C@@H]1C` [VI, reference compound], the IC50 ([9]; exposure time 1 h) was 5.5 nM, the IC50 ([9]; exposure time 72 h) was 0.9 nM and the IC50 ([10]; exposure time 1 h) was 1.6 nM. For the same compound, the IC50 ([10]; exposure time 72 h) was 0.4 nM, the IC50 ([11]; exposure time 1 h) was 0.7 nM and the IC50 ([11]; exposure time 72 h) was 0.3 nM. For the same compound, the IC50 ([12]; exposure time 1 h) was 5 nM, the IC50 ([12]; exposure time 72 h) was 0.6 nM and the IC50 ([13]; exposure time 1 h) was 5 nM. The IC50 ([13]; exposure time 72 h) was 1.7 nM, the IC50 ([2]; A549, 1 h) was 3.8 nM and the IC50 ([2]; A549, 72 h) was 3 nM. The IC50 ([14]; exposure time 1 h) was 2.9 nM, the IC50 ([14]; exposure time 72 h) was 0.5 nM and the IC50 ([15]; exposure time 1 h) was 5.7 nM. The IC50 ([15]; exposure time 72 h) was 4.3 nM, the IC50 ([16]; exposure time 1 h) was 6.7 nM and the IC50 ([16]; exposure time 72 h) was 1.5 nM. It also gave an IC50 ([4]; UMUC3, 1 h) of 2.6 nM, an IC50 ([4]; UMUC3, 72 h) of 0.3 nM and an IC50 ([7]; 1 h) of 2.2 nM. For the same compound, the IC50 ([7]; 72 h) was 0.5 nM, the IC50 ([17]; exposure time 1 h) was 2.6 nM and the IC50 ([17]; exposure time 72 h) was 0.4 nM. The IC50 ([18]; exposure time 1 h) was 2.1 nM, the IC50 ([18]; exposure time 72 h) was 0.8 nM and the IC50 ([19]; exposure time 1 h) was 2.1 nM. For the same compound, the IC50 ([19]; exposure time 72 h) was 0.3 nM, the IC50 ([20]; exposure time 1 h) was 3.2 nM and the IC50 ([20]; exposure time 72 h) was 0.7 nM. It also gave an IC50 [21] of 4.5 nM, an IC50 [22] of 4.8 nM and an IC50 ([23]; exposure time 1 h) of 1.8 nM. The IC50 ([23]; exposure time 72 h) was 0.3 nM, the IC50 [24] was 2.9 nM and the IC50 ([8]; 1 h) was 77.3 nM. The IC50 ([8]; 72 h) was 13 nM, the IC50 ([25]; exposure time 1 h) was 7.3 nM and the IC50 ([25]; exposure time 72 h) was 1 nM. The IC50 ([26]; exposure time 1 h) was 3.3 nM, the IC50 ([26]; exposure time 72 h) was 0.7 nM and the IC50 [27] was 0.8 nM. For the same compound, the IC50 [28] was 2.5 nM.
